Key:
[1] = Description: The volatility was determined by analyzing the loss of material by HLPL at 70° C. after 24 h at atmospheric pressure and the loss is summarized in Table 5. The application rate was 500 g/ha dicamba (free acid), 1000 g/ha potassium glyphosate, 300 g/ha Genamin® T050 (“Ad2”, 300 g/ha Preference® (“Ad3”) and optionally 250, 500 or 1000 g/ha K2CO3. Deionised water (hardness<1° dH) was used to prepare the samples. Dicamba BAPMA refers to the bis(3-aminopropyl)methylamine salt of dicamba.
[2] = tested on: Soya (glycine max) Variant Deltapine, genetically engineered to resist glyphosate; assay type: in vivo; settings: conclusion from Table 4
Description: For the greenhouse tests, maize (cultivar Amadeo) and Chenopodium album was sown or potted in loamy sandy soil to a depth of 1-2 cm. When the plants had reached a growth height of 10 to 25 cm (around 10 to 21 days after sowing), the spray mixtures were applied to the plants in a spraying cabin.
The temperatures in the experimental period, which lasted for 3 to 4 weeks, were between 18-35° C. During this time, the experimental plants received optimum watering, with nutrients being supplied via the water used for watering.
The herbicidal activity was evaluated by awarding scores to the treated plants in comparison to the untreated control plants (Table 1 and 2). The evaluation scale ranges from 0% to 100% activity. 100% activity means the complete death at least of those parts of the plant that are above ground. Conversely, 0% activity means that there were no differences between treated and untreated plants.
The biological evaluation was made as described in Example 6. The tank mixes were applied at a application rate of 375 l/ha (125 or 250 g of glyphosate free acid/ha and 300 g of adjuvant/ha). The adjuvant Ad1 is an aqeuous solution of 200 g/l Genamin® T150 (a tallow fatty amine ethoxylate with 15 EO). The adjuvant Ad2 is Genamin® T050 (a tallow fatty amine ethoxylate with 5 EO).
Soya (glycine max) Variant Deltapine was genetically engineered to resist glyphosate.

Row | SMILES | Loss of dicamba, Loss (wt %) ([1]; 70° C., 24 h, atmospheric pressure, 500 g/ha dicamba (free acid), deionised water) | pH of tank mix ([1]; deionised water (hardness<1° dH)) | phytotoxity effect on plants of addition of K2CO3 [2]
1 | CN(CCCN)CCCN.COc1c(Cl)ccc(Cl)c1C(=O)O [Dicamba BAPMA, bis(3-aminopropyl)methylamine salt of dicamba] | <1 | 6.3 | –
2 | O=C([O-])[O-].[K+].[K+] [Example K2CO3, K2CO3] | – | – | no phytotoxity effect
